Experimental data as given in PubChem BioAssay (NCI).
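GI50: concentration for 50% inhibition of growth. TGI denotes the concentration required for complete inhibition of growth.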

How the values were obtained:
Assay in all cases: growth of human tumour cells (NCI), 384-well format
786-0 renal = system: 786-0 renal
A498 renal = system: A498 renal
A549 NSCLC = system: A549 NSCLC
ACHN renal = system: ACHN renal
BT-549 breast = system: BT-549 breast
CAKI-1 renal = system: CAKI-1 renal
CCRF-CEM leukemia = system: CCRF-CEM leukemia
COLO 205 colon = system: COLO 205 colon
DU-145 prostate = system: DU-145 prostate
EKVX NSCLC = system: EKVX NSCLC
HCC-2998 colon = system: HCC-2998 colon
HCT-116 colon = system: HCT-116 colon
HCT-15 colon = system: HCT-15 colon
HL-60(TB) leukemia = system: HL-60(TB) leukemia
HOP-62 NSCLC = system: HOP-62 NSCLC
HOP-92 NSCLC = system: HOP-92 NSCLC
HS 578T breast = system: HS 578T breast
HT29 colon = system: HT29 colon
IGROV1 ovarian = system: IGROV1 ovarian
K-562 leukemia = system: K-562 leukemia
KM12 colon = system: KM12 colon
LOX IMVI melanoma = system: LOX IMVI melanoma
M14 melanoma = system: M14 melanoma
MALME-3M melanoma = system: MALME-3M melanoma
MCF7 breast = system: MCF7 breast
MDA-MB-231 breast = system: MDA-MB-231 breast
MDA-MB-435 melanoma = system: MDA-MB-435 melanoma
MDA-MB-468 breast = system: MDA-MB-468 breast
MOLT-4 leukemia = system: MOLT-4 leukemia

O=C(Oc1ccc([N+](=O)[O-])cc1)N1CCC(C(O)(c2ccc3c(c2)OCO3)c2ccc3c(c2)OCO3)CC1
GI50 ([…]-0 renal): > 100 µM | TGI (786-0 renal): > 100 µM | GI50 (A498 renal): > 100 µM | TGI (A498 renal): > 100 µM | GI50 (A549 NSCLC): > 100 µM | TGI (A549 NSCLC): > 100 µM | GI50 (ACHN renal): > 100 µM | TGI (ACHN renal): > 100 µM | GI50 (BT-549 breast): 53.1 µM | TGI (BT-549 breast): > 100 µM | GI50 (CAKI-1 renal): > 100 µM | TGI (CAKI-1 renal): > 100 µM | GI50 (CCRF-CEM leukemia): > 100 µM | TGI (CCRF-CEM leukemia): > 100 µM | GI50 (COLO 205 colon): > 100 µM | TGI (COLO 205 colon): > 100 µM | GI50 (DU-145 prostate): > 100 µM | TGI (DU-145 prostate): > 100 µM | GI50 (EKVX NSCLC): > 100 µM | TGI (EKVX NSCLC): > 100 µM | GI50 (HCC-2998 colon): 18.2 µM | TGI (HCC-2998 colon): > 100 µM | GI50 (HCT-116 colon): > 100 µM | TGI (HCT-116 colon): > 100 µM | GI50 (HCT-15 colon): > 100 µM | TGI (HCT-15 colon): > 100 µM | GI50 (HL-60(TB) leukemia): > 100 µM | TGI (HL-60(TB) leukemia): > 100 µM | GI50 (HOP-62 NSCLC): > 100 µM | TGI (HOP-62 NSCLC): > 100 µM | GI50 (HOP-92 NSCLC): 44.5 µM | TGI (HOP-92 NSCLC): > 100 µM | GI50 (HS 578T breast): 24.5 µM | TGI (HS 578T breast): > 100 µM | GI50 (HT29 colon): > 100 µM | TGI (HT29 colon): > 100 µM | GI50 (IGROV1 ovarian): > 100 µM | TGI (IGROV1 ovarian): > 100 µM | GI50 (K-562 leukemia): > 100 µM | TGI (K-562 leukemia): > 100 µM | GI50 (KM12 colon): > 100 µM | TGI (KM12 colon): > 100 µM | GI50 (LOX IMVI melanoma): > 100 µM | TGI (LOX IMVI melanoma): > 100 µM | GI50 (M14 melanoma): > 100 µM | TGI (M14 melanoma): > 100 µM | GI50 (MALME-3M melanoma): > 100 µM | TGI (MALME-3M melanoma): > 100 µM | GI50 (MCF7 breast): > 100 µM | TGI (MCF7 breast): > 100 µM | GI50 (MDA-MB-231 breast): > 100 µM | TGI (MDA-MB-231 breast): > 100 µM | GI50 (MDA-MB-435 melanoma): > 100 µM | TGI (MDA-MB-435 melanoma): > 100 µM | GI50 (MDA-MB-468 breast): 32.6 µM | TGI (MDA-MB-468 breast): > 100 µM | GI50 (MOLT-4 leukemia): > 100 µM | TGI (MOLT-4 leukemia): > 100 µM
